Data from PubChem BioAssay AID2060340 (Molecular Pharmacology Branch, DTP, NCI, 2025).

Tested on: 349418-098-R-PDC spheroids, viability, % test/control
Test: Anticancer human tumor 349418-098-R-PDC patient-derived lung adenocarcinoma cell line growth inhibition [IpAb]
Settings: spheroids with HUVEC and MSC; for IC50: curve of first compound; for viability, T/C: stronger effect = lower value
Source text: Combinatorial screen of targeted agents with ipatasertib and abemaciclib in multi-cell type tumor spheroids
A high-throughput screen of multi-cell type tumor spheroids was designed to identify active combinations of targeted small molecules and ipatasertib or abemaciclib. Complex spheroids include a stromal component modeled by human endothelial cells (HUVEC) and fibroblasts modeled by human mesenchymal stem cells (MSCs). The concentration ranges selected for each drug and investigational agent were based upon clinically achievable concentrations if the clinical Cmax of the agent was known.
Compounds. The drugs and investigational agents: ipatasertib (NSC767898), abemaciclib(NSC768073), selumetinib (NSC741078), trametinib (758246), adavosertib (NSC754352), everolimus (NSC733504), sapanisertib (NSC764658), vemurafenib (NSC761431), venetoclax (NSC766270), copanlisib (NSC809693), apelisib (NSC765974), palbociblib (NSC758247), vemurafenib (NSC761431), dabrafenib (NSC764134), ravoxertinib (NSC781343), BMS-387032 (NSC767048), sotorasib (NSC818433), talazoparib (NSC767125) and afursertib (NSC778305), were obtained from the National Cancer Institute (NCI) Developmental Therapeutics Program Chemical Repository. The FDA-approved anticancer drug set is available from the NCI Developmental Therapeutics Program. […] The stock solutions were prepared in dimethyl sulfoxide (DMSO, Sigma-Aldrich, St. Louis, MO, cat. D2650) at 800-fold the tested concentration and stored at -70 degrees C prior to their use. All drugs and investigational agents were tested over a range starting from a high concentration at or near the clinical Cmax and decreasing in half-log increments. If the clinical Cmax for an agent had not been determined, the highest concentration tested was 10 microM.
NCI60 Cell Culture. NCI60 cell lines were obtained from the NCI Developmental Therapeutics Program Tumor Repository. For each lot of cells, the Repository performed Applied Biosystems AmpFLSTR Identifiler testing with PCR amplification to confirm consistency with the published Identifier STR profile for each cell line. Cells were kept in continuous culture for no more than 20 passages. The optimal seeding densities for each of the cell lines at each time point assessed were determined prior to performing the concentration response studies. Briefly, the NCI60 human tumor lines were grown as monolayers in RPMI 1640 medium supplemented with 10% FBS and 2 mmol/L L-glutamine.
An additional 9 lines were from the NCI60 cell line panel including MDA-MB-231 breast carcinoma, MDA-MB-468 breast carcinoma, MCF7 breast carcinoma, Hs578T breast carcinoma, MALME-3M melanoma, SK-MEL-2 melanoma, SK-OV-3 ovarian carcinoma, DU-145 prostate carcinoma, PC-3 prostate carcinoma, all cell lines along with major genetic alterations are listed on Table 2. Pooled donor human umbilical vein endothelial cells (HUVEC, Lonza, cat. CC-2519) and human mesenchymal stem cells (hMSC, Lonza, cat. PT-2501) were purchased from Lonza (Walkersville, MD).
PDMR cell lines were grown in complete medium (DC medium): Dulbecco's modified Eagle's medium (DMEM)/F12 supplemented with 5% fetal bovine serum (FBS), 2 mM L-glutamine, 100 U/mL penicillin and 100 µg/ml streptomycin, 0.4 µg/ml hydrocortisone, 10 ng/ml epidermal growth factor (EGF) recombinant human protein, 24 µg/mL adenine, and 0.1 mg/mL primocin. During culture from frozen stock vials, PDMR cells were cultured in the same medium containing 10 µM Y-27632 (see Table 3). The PDCs were cultured in complete DMEM/F12 media without 10 microM Y-27632 dihydrochloride for at least two passages prior to the screen. The pooled donor HUVEC and hMSC were cultured in endothelial cell growth medium 2 (PromoCell, Heidelberg, Germany, cat. C-22011) and mesenchymal stem cell growth medium 2 (PromoCell, cat. C-28009), respectively. For all experiments, HUVEC and hMSC were used at passages </=5.
[…]

[1] = second compound 0.1 µM, first compound 0.0316 µM
[2] = second compound 0.1 µM, first compound 0.1 µM
[3] = second compound 0.316 µM, first compound 0.0316 µM
[4] = second compound 0.316 µM, first compound 0.1 µM
[5] = second compound 1 µM, first compound 0.0316 µM
[6] = second compound 1 µM, first compound 0.1 µM
[7] = second compound 3.16 µM, first compound 0.0316 µM
[8] = second compound 3.16 µM, first compound 0.1 µM
[9] = second compound 10 µM, first compound 0.0316 µM
[10] = second compound 10 µM, first compound 0.1 µM
[11] = second compound 0.1 µM, first compound 0.316 µM
[12] = second compound 0.1 µM, first compound 1 µM
[13] = second compound 0.1 µM, first compound 3.16 µM
[14] = second compound 0.1 µM, first compound 10 µM
[15] = second compound 0.316 µM, first compound 0.316 µM
[16] = second compound 0.316 µM, first compound 1 µM
[17] = second compound 0.316 µM, first compound 3.16 µM
[18] = second compound 0.316 µM, first compound 10 µM
[19] = second compound 1 µM, first compound 0.316 µM
[20] = second compound 1 µM, first compound 1 µM
[21] = second compound 1 µM, first compound 3.16 µM
[22] = second compound 1 µM, first compound 10 µM
[23] = second compound 3.16 µM, first compound 0.316 µM
[24] = second compound 3.16 µM, first compound 1 µM
[25] = second compound 3.16 µM, first compound 3.16 µM
[26] = second compound 3.16 µM, first compound 10 µM
[27] = second compound 10 µM, first compound 0.316 µM
[28] = second compound 10 µM, first compound 1 µM
[29] = second compound 10 µM, first compound 3.16 µM
[30] = second compound 10 µM, first compound 10 µM
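Note: spheroids exposed to compounds for 7 days.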

Row | Structure (SMILES) | IC50 (second compound 0.1 µM) | IC50 (second compound 0.316 µM) | IC50 (second compound 1 µM) | IC50 (second compound 3.16 µM) | IC50 (second compound 10 µM) | viability, T/C [1] | viability, T/C [2] | viability, T/C [3] | viability, T/C [4] | viability, T/C [5] | viability, T/C [6] | viability, T/C [7] | viability, T/C [8] | viability, T/C [9] | viability, T/C [10] | viability, T/C [11] | viability, T/C [12] | viability, T/C [13] | viability, T/C [14] | viability, T/C [15] | other results
1 | CC(C)n1nc(-c2ccc3oc(N)nc3c2)c2c(N)ncnc21 + CC(C)NCC(C(=O)N1CCN(c2ncnc3c2C(C)CC3O)CC1)c1ccc(Cl)cc1 | 0.681 nM | < 0.316 nM | < 0.316 nM | < 0.316 nM | < 0.316 nM | 6.65% | 6.26% | 5.66% | 5.5% | 5.35% | 4.7% | 4.32% | 5.98% | 4.43% | 4.42% |  |  |  |  |  | viability, T/C (second compound 0.1 µM, first compound 0.000316 µM): 69.4%; viability, T/C (second compound 0.1 µM, first compound 0.001 µM): 40.3%; viability, T/C (second compound 0.1 µM, first compound 0.00316 µM): 14.5%; viability, T/C (second compound 0.1 µM, first compound 0.01 µM): 7.8%; viability, T/C (second compound 0.316 µM, first compound 0.000316 µM): 31.8%; viability, T/C (second compound 0.316 µM, first compound 0.001 µM): 17.4%; viability, T/C (second compound 0.316 µM, first compound 0.00316 µM): 8.31%; viability, T/C (second compound 0.316 µM, first compound 0.01 µM): 5.95%; viability, T/C (second compound 1 µM, first compound 0.000316 µM): 14.4%; viability, T/C (second compound 1 µM, first compound 0.001 µM): 8.54%; viability, T/C (second compound 1 µM, first compound 0.00316 µM): 5.9%; viability, T/C (second compound 1 µM, first compound 0.01 µM): 4.87%; viability, T/C (second compound 3.16 µM, first compound 0.000316 µM): 10.7%; viability, T/C (second compound 3.16 µM, first compound 0.001 µM): 6.81%; viability, T/C (second compound 3.16 µM, first compound 0.00316 µM): 5.04%; viability, T/C (second compound 3.16 µM, first compound 0.01 µM): 4.7%; viability, T/C (second compound 10 µM, first compound 0.000316 µM): 6.8%; viability, T/C (second compound 10 µM, first compound 0.001 µM): 5.96%; viability, T/C (second compound 10 µM, first compound 0.00316 µM): 5.29%; viability, T/C (second compound 10 µM, first compound 0.01 µM): 3.92%
2 | CC1(C)CCC(CN2CCN(c3ccc(C(=O)NS(=O)(=O)c4ccc(NCC5CCOCC5)c([N+](=O)[O-])c4)c(Oc4cnc5[nH]ccc5c4)c3)CC2)=C(c2ccc(Cl)cc2)C1 + CC(C)NCC(C(=O)N1CCN(c2ncnc3c2C(C)CC3O)CC1)c1ccc(Cl)cc1 | 3820 nM | 326 nM | < 31.6 nM | < 31.6 nM | < 31.6 nM | 99.2% | 96.5% | 64.7% | 49.4% | 30% | 29.5% | 13.3% | 13% | 8.33% | 8.41% | 97.8% | 78% | 60.6% | 7.06% | 50.6% | viability, T/C [16]: 40.1%; viability, T/C [17]: 31.4%; viability, T/C [18]: 5.53%; viability, T/C [19]: 27.3%; viability, T/C [20]: 20.4%; viability, T/C [21]: 16%; viability, T/C [22]: 4.15%; viability, T/C [23]: 11.5%; viability, T/C [24]: 12.3%; viability, T/C [25]: 8.4%; viability, T/C [26]: 3.13%; viability, T/C [27]: 8.13%; viability, T/C [28]: 7.39%; viability, T/C [29]: 5.52%; viability, T/C [30]: 2.19%
3 | CCCS(=O)(=O)Nc1ccc(F)c(C(=O)c2c[nH]c3ncc(-c4ccc(Cl)cc4)cc23)c1F + CC(C)NCC(C(=O)N1CCN(c2ncnc3c2C(C)CC3O)CC1)c1ccc(Cl)cc1 | 106 nM | < 31.6 nM | < 31.6 nM | < 31.6 nM | < 31.6 nM | 56.4% | 48.1% | 32.9% | 29.4% | 19.1% | 16.6% | 9.81% | 7.85% | 6.76% | 6.33% | 42.4% | 38.4% | 33.5% | 15.7% | 29.8% | viability, T/C [16]: 21.7%; viability, T/C [17]: 21.4%; viability, T/C [18]: 11.2%; viability, T/C [19]: 11.9%; viability, T/C [20]: 10.1%; viability, T/C [21]: 11%; viability, T/C [22]: 7.7%; viability, T/C [23]: 7.36%; viability, T/C [24]: 6.91%; viability, T/C [25]: 7.18%; viability, T/C [26]: 6.15%; viability, T/C [27]: 5.46%; viability, T/C [28]: 5.62%; viability, T/C [29]: 5.53%; viability, T/C [30]: 4.47%
